Source: patent publication US20220323383A1, “SMALL-MOLECULAR ADJUVANTS AND IMPLEMENTATIONS THEREOF” (JAWAHARLAL NEHRU CENTRE FOR ADVANCED SCIENTIFIC RESEARCH, priority 2019, published 2022)

Key:
Assay type in all cases: cell-based
[1] = test system: E. coli R3336; assay: Individual antibacterial activity (MIC) of adjuvants; settings: Escherichia coli, R3336, read-out: MIC against clinical isolates of bacteria
Experimental: (§1) The combination efficacy with antibiotics from different classes and individual antibacterial activity of the synthesized adjuvants was evaluated against the above mentioned MDR and NDM-1 strains of Gram-negative bacteria. All the bacteria were grown in peptone. The bacterial samples were freeze dried and stored at −80° C. 3 μl of these stocks were added to 3 mL of peptone and the culture was grown for 6 h at 37° C. prior to the experiments.
(§2) All synthesized compounds were assayed for their antibacterial activity in combination with antibiotics in a modified chequerboard micro-dilution broth format. Stock solutions were made by serially diluting the compounds using autoclaved millipore water. The bacterial freeze dried stock samples were stored at −80° C. About 3 μL of these stocks were added to about 3 mL of the respective broth and the culture was grown for about 6 h at about 37° C. with prior to the experiments. This 6 h grown culture gives about 10^8 cfu/mL in case of A. baumannii R674, P. aeruginosa R590, E. coli R3336 and K. pneumoniae R3934 which were determined by spread plating method. This 6 h grown culture was diluted to give effective cell concentration of 10^5 cfu/mL, and then used for the chequerboard assay. Adjuvants and antibiotics were serially diluted in two-fold, in sterile millipore water. 25 μL of these serial dilutions of the antibiotics and 25 μL of compounds were added to the wells of 96 well plate followed by the addition of about 150 μL of bacterial solution (˜10^5 cfu/mL). The plates were then incubated at about 37° C., 150 rpm in the incubator and O.D at 600 nm was recorded at 24 h using TECAN (Infinite series, M200 pro) Plate Reader. The wells with similar OD as the media control contained the required concentration of the antibiotic and adjuvant for antibacterial efficacy. The potentiation ability of the adjuvants was determined by calculating the potentiation factor and the Fractional Inhibitory concentration (FIC) index. Fractional Inhibitory Concentration (FIC) is expressed as, FIC=[X]/MICX, where [X] is the lowest inhibitory concentration of antibiotic in the presence of the adjuvant. Whereas FIC index is expressed as, FICI=FICantibiotic+FICadjuvant. The values of FIC index give an insight about the nature of the combination. Potentiation factor which means fold-reduction in the MIC of the antibiotic, when used in combination with the adjuvant was also determined. Potentiation factor=[Minimum inhibitory concentration (MIC) of antibiotic in absence of adjuvant]/[MIC of antibiotic in presence of adjuvant]. […] The combination efficacies of adjuvants with various antibiotics are furnished in Table 1. It should be noted that various other resistant strains of bacteria (Gram-positive and Gram-negative) can be tested with a number of other antibiotics to check the potentiation capacity of the adjuvants.

[2] = test system: A. baumannii R674; assay: as above; settings: Acinetobacter baumannii; adjuvant alone; A. baumannii R674; read-out: MIC against clinical isolates of bacteria
Experimental: as §1, §2

[3] = test system: K. pneumoniae R3934; assay: as above; settings: Klebsiella pneumoniae; adjuvant alone; K. pneumoniae R3934; read-out: MIC against clinical isolates of bacteria
Experimental: as §1, §2

[4] = test system: P. aeruginosa R590; assay: as above; settings: Pseudomonas aeruginosa; adjuvant alone; P. aeruginosa R590; read-out: MIC against clinical isolates of bacteria
Experimental: as §1, §2

[5] = test system: human RBCs; assay: Haemolytic activity; settings: concentration at which 50% of human blood cells are lysed; 1 h at 37° C.
Experimental: Erythrocytes were isolated from freshly drawn, heparanized human blood and re-suspended to 5 vol % in PBS (pH 7.4). In a 96-well microtiter plate, 150 μl of erythrocyte suspension was added to 50 μl of serially diluted compound. Two controls were made, one without compound and other with 50 μl of 1 vol % solution of Triton X-100. The plate was incubated for 1 h at 37° C. The plate was then centrifuged at 3,500 rpm for 5 min, 100 μl of the supernatant from each well was transferred to a fresh 96-well microtiter plate, and A540 was measured. Percentage of hemolysis was determined as (A−A0)/(Atotal−A0)×100, where A is the absorbance of the test well, A0 the absorbance of the negative controls (without compound), and Atotal the absorbance of 100% hemolysis wells (with Triton X-100), all at 540 nm.
Toxicity studies of the compounds were done on freshly drawn human RBCs. Toxicity of the compounds were defined by their HC50 values (Table 2), i.e. the concentration of compound at which 50% of the blood cells are lysed.

[6] = test system: E. coli R3336; assay: Chequerboard combination efficacy of adjuvant with antibiotics
Experimental: (§3) All the solvents were of reagent grade, which were distilled and dried before its use. All the reagents were purchased from Sigma-Aldrich, Alfa-Aesar, S.D. Fine, Avra and Spectrochem, and were used without further purification. Analytical thin layer chromatography (TLC) was performed on E. Merck TLC plates pre-coated with silica gel 60 F254 and visualization was carried out using UV light and Iodine. Column chromatography was performed on silica gel (60-120 mesh) using different ratio of chloroform and methanol solvent system. Nuclear magnetic resonance spectra were recorded on Bruker (AV-400) 400 MHz spectrometer in deuterated solvents. Mass spectra were obtained using 6538-UHD Accurate mass Q-TOF LC-MS instrument. For optical density measurement during bacteriology experiments, Tecan Infinite Pro series M200 Microplate Reader was used. Bacterial strains, A. baumannii (R674), P. aeruginosa (R590), E. coli (R3336) and K. pneumoniae (R3934) were used for the studies.
as §1, §2

[7] = test system: A. baumannii R674; assay: as above
Experimental: as §3, §1, §2

[8] = test system: K. pneumoniae R3934; assay: as above
Experimental: as §3, §1, §2

[9] = test system: P. aeruginosa R590; assay: as above; settings: P. aeruginosa R590
Experimental: as §3, §1, §2

NCCCC[C@H](N)C(=O)NCCCCCCN(CCCCCCNC(=O)[C@@H](N)CCCCN)CC(=O)NC1C2CC3CC(C2)CC1C3 (stereo partly shown) [Compound 15, N-(adamantan-2-yl)-2-[N′,N′-{bis-(6-^LLys) amido)hexyl} amino] ethanamide pentakistrifluoroacetate]
MIC [1]: > 512 µg/mL
MIC [2]: 128 µg/mL
MIC [3]: > 512 µg/mL
MIC [4]: 64 µg/mL
HC50 [5]: >1024 µg/mL
FICI ([6]; antibiotic Fusidic acid): <0.1875
Potentiation factor ([6]; antibiotic Fusidic acid): >16
MIC of antibiotic in presence of adjuvant ([6]; antibiotic Linezolid): No potentiation
FICI ([6]; antibiotic Minocycline): <0.0469
MIC of antibiotic in presence of adjuvant ([6]; antibiotic Minocycline): 0.5 µg/mL
Potentiation factor ([6]; antibiotic Minocycline): 64
FICI ([6]; antibiotic Rifampicin): <0.0469
MIC of antibiotic in presence of adjuvant ([6]; antibiotic Rifampicin): 16 µg/mL
Potentiation factor ([6]; antibiotic Rifampicin): 32
MIC of antibiotic in presence of adjuvant ([7]; antibiotic Ampicillin): No potentiation
FICI ([7]; antibiotic Ciprofloxacin): 1.25
MIC of antibiotic in presence of adjuvant ([7]; antibiotic Ciprofloxacin): 64 µg/mL
Potentiation factor ([7]; antibiotic Ciprofloxacin): 4
FICI ([7]; antibiotic Erythromycin): 0.1875
MIC of antibiotic in presence of adjuvant ([7]; antibiotic Erythromycin): 32 µg/mL
Potentiation factor ([7]; antibiotic Erythromycin): 16
FICI ([7]; antibiotic Fusidic acid): <0.07
MIC of antibiotic in presence of adjuvant ([7]; antibiotic Fusidic acid): <0.5 µg/mL
Potentiation factor ([7]; antibiotic Fusidic acid): >128
FICI ([7]; antibiotic Linezolid): 1.125
Potentiation factor ([7]; antibiotic Linezolid): 8
FICI ([7]; antibiotic Minocycline): 0.5625
MIC of antibiotic in presence of adjuvant ([7]; antibiotic Minocycline): 0.5 µg/mL
Potentiation factor ([7]; antibiotic Minocycline): 16
FICI ([7]; antibiotic Rifampicin): 0.1289
MIC of antibiotic in presence of adjuvant ([7]; antibiotic Rifampicin): 0.25 µg/mL
Potentiation factor ([7]; antibiotic Rifampicin): 256
MIC of antibiotic in presence of adjuvant ([7]; antibiotic Streptomycin): No potentiation
FICI ([7]; antibiotic Tetracycline): 0.5156
MIC of antibiotic in presence of adjuvant ([7]; antibiotic Tetracycline): 2 µg/mL
Potentiation factor ([7]; antibiotic Tetracycline): 64
FICI ([7]; antibiotic Vancomycin): 0.5625
Potentiation factor ([7]; antibiotic Vancomycin): 2
FICI ([8]; antibiotic Fusidic acid): <0.0781
MIC of antibiotic in presence of adjuvant ([8]; antibiotic Fusidic acid): 8 µg/mL
Potentiation factor ([8]; antibiotic Fusidic acid): 64
MIC of antibiotic in presence of adjuvant ([8]; antibiotic Linezolid): No potentiation
FICI ([8]; antibiotic Minocycline): <0.07
MIC of antibiotic in presence of adjuvant ([8]; antibiotic Minocycline): 0.5 µg/mL
Potentiation factor ([8]; antibiotic Minocycline): 128
FICI ([8]; antibiotic Rifampicin): <0.1289
MIC of antibiotic in presence of adjuvant ([8]; antibiotic Rifampicin): 2 µg/mL
Potentiation factor ([8]; antibiotic Rifampicin): 256
Potentiation factor ([9]; antibiotic Chloramphenicol): 4
FICI ([9]; antibiotic Colistin): 0.3125
MIC of antibiotic in presence of adjuvant ([9]; antibiotic Colistin): 0.25 µg/mL
Potentiation factor ([9]; antibiotic Colistin): 4
MIC of antibiotic in presence of adjuvant ([9]; antibiotic Daptomycin): No potentiation
FICI ([9]; antibiotic Fusidic acid): <0.1289
MIC of antibiotic in presence of adjuvant ([9]; antibiotic Fusidic acid): <0.25 µg/mL
Potentiation factor ([9]; antibiotic Fusidic acid): >256
FICI ([9]; antibiotic Linezolid): 0.2812
Potentiation factor ([9]; antibiotic Linezolid): 4
FICI ([9]; antibiotic Minocycline): 0.5
MIC of antibiotic in presence of adjuvant ([9]; antibiotic Minocycline): 2 µg/mL
Potentiation factor ([9]; antibiotic Minocycline): 4
FICI ([9]; antibiotic Rifampicin): <0.126
MIC of antibiotic in presence of adjuvant ([9]; antibiotic Rifampicin): <0.125 µg/mL
Potentiation factor ([9]; antibiotic Rifampicin): >1024
FICI ([9]; antibiotic Tetracycline): 0.5078
MIC of antibiotic in presence of adjuvant ([9]; antibiotic Tetracycline): 2 µg/mL
Potentiation factor ([9]; antibiotic Tetracycline): 128
